The supplement of paper PMC10933113
Counter-ions that a name gives are not always drawn. ± gives the uncertainty stated by the source.

How the values were obtained:
THP-1 [1] = experiment: AC50 of IL-8 secretion induction; higher = less potent; conditions: exposure time: 18 h
THP-1 [2] = experiment: efficacy of IL-8 induction relative to DMSO (% activity); higher = stronger induction; conditions: exposure time: 18 h
[3] = system: KeratinoSens (HaCaT ARE-luciferase) cells; experiment: efficacy of ARE luciferase induction relative to DMSO (% activity over DMSO); higher = stronger induction; conditions: exposure time: 24 h
[4] = system: KeratinoSens (HaCaT ARE-luciferase) cells; experiment: AC50 of Nrf2/ARE luciferase induction; higher = less potent; conditions: exposure time: 24 h
[5] = system: KeratinoSens (HaCaT ARE-luciferase) cells; experiment: cytotoxicity AC50 (CellTiter-Fluor viability); higher = less cytotoxic; conditions: exposure time: 24 h
[6] = system: lysine peptide Ac-RFAAKAA-COOH; experiment: efficacy of lysine peptide change (negative = depletion) (% activity); higher = less depletion; conditions: incubation time: 24 h
[7] = system: cysteine peptide Ac-RFAACAA-COOH; experiment: efficacy of cysteine peptide change (negative = depletion) (% activity); higher = less depletion; conditions: incubation time: 24 h
[8] = system: cysteine peptide Ac-RFAACAA-COOH; experiment: AC50 of cysteine peptide concentration-response (direction given by sign of efficacy); higher = less potent; conditions: incubation time: 24 h

SMILES	efficacy of lysine peptide change [6]	efficacy of cysteine peptide change [7]	AC50 [8] [µM]	AC50 of IL-8 secretion induction (THP-1 [1]) [µM]	efficacy of IL-8 induction (THP-1 [2])	efficacy of ARE luciferase induction [3]	AC50 of Nrf2/ARE luciferase induction [4] [µM]	cytotoxicity AC50 [5] [µM]
c1ccc2sc(SSN3CCOCC3)nc2c1 [2-(Morpholin-4-yldithio)-1,3-benzothiazole]				59.9	58 ± 8.8	57.3 ± 29		
[CH3][Hg][Cl] [Methyl mercuric (II) chloride]	0	-97.5 ± 1.4	46.5 ± 3.1		73.6 ± 0.91	188 ± 110	3.98	6.57 ± 0.44
O=C(CCl)CCl [1,3-Dichloropropanone]	-12.5 ± 16	-107 ± 9.9	35.6 ± 4.1		22.5 ± 6.2	84.2 ± 64	40.9	
N#C/C=C/C#N [Fumaronitrile]	-12.4 ± 34	-104 ± 7.3	3.3 ± 0.42		8.38 ± 7.6	193 ± 39	32.9	23.1 ± 6.4
[Cl][Cd][Cl] [Cadmium II chloride]	4.14 ± 11	11.2 ± 30			19.4 ± 2.2	146 ± 94	18.9	37.3 ± 6.7
NNC(N)=S [Thiosemicarbazide]	9.67 ± 17	-40.9 ± 11			35.8 ± 29	64.8 ± 15	15.8	28.3 ± 3.2
CN(C)S(=O)(=O)N(SC(F)(Cl)Cl)c1ccccc1 [Dichlofluanid]	62.1 ± 23	-92.1 ± 5	1.96 ± 0.48		19.9 ± 4.2	169 ± 52	15.8	27.2 ± 1.8
COP(=O)(OC)OC(Br)C(Cl)(Cl)Br (stereo not drawn) [Naled]	-3.08 ± 5.3	-89.9 ± 2.4	0.93 ± 0.12		8.61 ± 7.6	307 ± 93	31.8	46.5 ± 3.1
CN1C[C@H](C(=O)N[C@]2(C)O[C@@]3(O)[C@@H]4CCCN4C(=O)[C@H](Cc4ccccc4)N3C2=O)C=C2c3cccc4[nH]cc(c34)C[C@H]21 [Ergotamine D-tartrate*]	14.3 ± 3.5	-98.5 ± 6.4	11.4 ± 2.6		15.3 ± 4.1	61.1 ± 17	23.1	
CN(C)c1ccc(N)cc1 [N,N-Dimethyl-p-phenylenediamine]	-17.1 ± 8.3	-130 ± 19	8.18 ± 2.3		21 ± 7.2	84.5 ± 29	17.1	
O=C1OC(CCN2CCCCC2)OC1(c1ccccc1)c1ccccc1 (stereo not drawn) [Pipoxolan hydrochloride]	-49.6 ± 25	-104 ± 2.6	4.43 ± 1.9		0	107 ± 83	20.7	33.5 ± 2.7
C[C@]12CC[C@H](O)C[C@H]1CC[C@@H]1[C@@H]2C[C@@H](O)[C@]2(C)[C@@H](C3=CC(=O)OC3)CC[C@]12O [Digoxigenin]	68.2 ± 22	2.17 ± 3.8			21.1 ± 4.1	600 ± 260	5.7	4.65 ± 1.6

Continued, in another order:

efficacy of lysine peptide change [6]	efficacy of cysteine peptide change [7]	AC50 [8] [µM]	SMILES	AC50 of IL-8 secretion induction (THP-1 [1]) [µM]	efficacy of IL-8 induction (THP-1 [2])	efficacy of ARE luciferase induction [3]	AC50 of Nrf2/ARE luciferase induction [4] [µM]	cytotoxicity AC50 [5] [µM]
6.09 ± 18	-91.9 ± 9.5	33.5 ± 7.5	O=C(O)Cc1cc(I)c(Oc2cc(I)c(O)c(I)c2)c(I)c1 [Tetrac]		0	377 ± 69	43.1	
33.7 ± 8.7	-93.3 ± 27	96.8 ± 13	O=C(Nc1ncc([N+](=O)[O-])s1)c1cccs1 [Tenonitrozole]		6.75 ± 5.9	27.5 ± 48	8.8	12.7 ± 2
-2.87 ± 17	-3.44 ± 6		COc1ccc2cc(CCC(C)=O)ccc2c1 [Nabumetone]		0.27 ± 5.5	124 ± 44	3.98	7.94
-2.94 ± 13	-111 ± 7.3	34.1 ± 14	C=CC(=O)OCCOC(=O)CCC(=O)O [4-[2-(Acryloyloxy)ethoxy]-4-oxobutanoic acid]		0	87.4 ± 29	61.3	
7.79 ± 12	-90.9 ± 5	1.06 ± 0.49	Nc1ccccc1N [1,2-Phenylenediamine*]		4.93 ± 5.2	88 ± 31	34.4	
-20.5 ± 4.3	-99.4 ± 8.8	28.3 ± 9.3	C=C1CC[C@H](O)C/C1=C/C=C1\CCC[C@]2(C)[C@@H]([C@H](C)/C=C/[C@H](C)C(C)C)CC[C@@H]12 [Ergocalciferol*]		20.2 ± 3.7	78.7 ± 43	34.2	
12.2 ± 14	-95.5 ± 18	79.8 ± 9.2	COc1ccc(C(=O)/C(Br)=C\C(=O)O)cc1 [Cytembena]		33.2 ± 4.5	417 ± 100	37.1	57 ± 12
20.6 ± 4.8	-104 ± 14	28.6 ± 15	C/C=C/C=C/CCCCCCCO [Codlelure]		8.57 ± 7.8	1300 ± 400	73.7	44.9 ± 5.2
-21.7 ± 10	-92.2 ± 5	0.9 ± 0.1	COc1cccc2c1C(=O)c1c(O)c3c(c(O)c1C2=O)C[C@@](O)(C(=O)CO)C[C@@H]3O[C@H]1C[C@H](N)[C@H](O)[C@H](C)O1 [Doxorubicin*]		31.2 ± 4.9	860 ± 140	7.94	11.3 ± 1.3
35 ± 23	-113 ± 17	40 ± 4.6	c1ccc(CCNc2nc(-c3ccccc3)cs2)cc1 [Fanetizole]		45.8 ± 14	119 ± 37	33.2	41.4 ± 2.8
-33.9 ± 4.4	-101 ± 3.8	3.01 ± 1.5	COc1cccc2c1C(=O)c1c(O)c3c(c(O)c1C2=O)C[C@@](O)(C(=O)CO)C[C@@H]3O[C@H]1C[C@H](N)[C@H](O[C@@H]2CCCCO2)[C@H](C)O1 [Pirarubicin*]		21.1 ± 6.6	638 ± 360	20.5	17.9 ± 6.5
1.57 ± 29	-101 ± 5.4	3.84 ± 0.25	CN(C)c1ccc(SC#N)cc1 [4-(Dimethylamino)phenylthiocyanate]		87.8 ± 8.9	73.3 ± 36	34.2	65 ± 18
9.01 ± 17	-106 ± 3.3	50.1	C=CC(=O)OCCCCCCOC(=O)C=C [1,6-Hexanediol diacrylate]		9.97 ± 9.4	343 ± 90	35.5	43 ± 2.8
-110 ± 23	-129 ± 9.8	17 ± 5	C/C=C/C=C/C=O [2,4-Hexadienal]		12.8 ± 12	427 ± 46	73.7	
-47.7 ± 5.3	-86.2 ± 6.7	19.4 ± 11	Cc1c2ccccc2c(C)c2c1ccc1ccccc12 [7,12-Dimethylbenzanthracene]		129 ± 15	69 ± 29	29.6	57 ± 12
